Measured values published in patent US5688798A, “Pyrimidine compounds” (Hoffmann-La Roche Inc., priority 1995, dated 1997).

Molecular target: T1, dopamine D4 receptor (Homo sapiens, UniProt P21917)
T1 construct: expressed in transfected cells; host or cells: CHO (Chinese Hamster Ovary) cells, D4-CHO, crude membranes
T1 sequence (P21917 1-419): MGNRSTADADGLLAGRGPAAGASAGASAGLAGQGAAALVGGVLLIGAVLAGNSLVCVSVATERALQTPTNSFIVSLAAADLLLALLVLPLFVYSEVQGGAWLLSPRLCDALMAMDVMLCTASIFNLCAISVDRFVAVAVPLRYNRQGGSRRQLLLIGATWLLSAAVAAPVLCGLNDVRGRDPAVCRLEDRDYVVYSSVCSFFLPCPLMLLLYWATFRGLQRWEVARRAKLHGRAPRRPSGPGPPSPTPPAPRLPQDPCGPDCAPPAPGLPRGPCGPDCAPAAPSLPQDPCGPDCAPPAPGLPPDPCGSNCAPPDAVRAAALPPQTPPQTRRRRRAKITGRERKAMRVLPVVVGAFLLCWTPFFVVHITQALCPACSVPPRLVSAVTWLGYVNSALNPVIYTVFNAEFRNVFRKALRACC
Assay: binding behaviour at the dopamine D4 receptor, [3H]-spiperone displacement in D4-CHO cell membranes
Details: not given
Description: The compounds were characterized by their binding behaviour at the D4 receptor.
CHO cells (Chinese Hamster Ovary) were used in the test. Crude membranes were isolated by ultracentrifugation from D4 -CHO and D2 -CHO cells and were stored at -80° C. After thawing and homogenizing in a buffer solution (50 mM Tris, 1 mM EDTA, 5 mM KCl, 1.5 mM CaCl2, 4 mM MgCl2, pH 7.4) they were incubated at room temperature for 90 minutes with 200 pM [3H]-spiperone and an increasing concentration (1×10^-11 M to 1×10^-4 M) of the test compound. A non-specific binding was established by incubating in the presence of 1×10^-5 M (+)-butaclamol. The unbound radioligand was removed by filtration through a GF/C glass filter and the bound radioactivity was determined by scintillation in a Packard TopCount.
It was determined using :^3 H-spiperone. The calculation of the value was effected with ligand.

SMILES	Ki [nM]
Cc1ncc(CN2CC=C(c3ccc(F)cc3)CC2)c(N)n1 [Example 15, 5-[4-(4-Fluoro-phenyl)-3,6-dihydro-2H-pyridin-1-ylmethyl]-2-methyl-pyrimidin-4-ylamine]	9.3
COc1ccc(C2=CCN(Cc3cnc(C)nc3N)CC2)cc1 [Example 17, 5-[4-(4-Methoxy-phenyl)-3,6-dihydro-2H-pyridin-1-ylmethyl]-2-methyl-pyrimidin-4-ylamine]	5.4
Nc1ncc(CN2CC=C(c3ccccc3)CC2)c(N)n1 [Example 42, 5-(4-Phenyl-3,6-dihydro-2H-pyridin-1-ylmethyl)-pyrimidine-2,4-diamine]	14
Cc1ncc(CN2CC=C(c3ccccc3)CC2)c(N)n1 [Example 14, 5-(4-Phenyl-3,6-dihydro-2H-pyridin-1-ylmethyl)-2-methyl-pyrimidin-4-ylamine]	8.3
Cc1ncc(CN2CCC3=C(CCCC3)C2)c(N)n1 [Example 24, 5-(3,4,5,6,7,8-Hexahydro-1H-isoquinolin-2-ylmethyl)-2-methyl-pyrimidin-4-ylamine]	7.8
Cc1ncc(CN2CC=C(c3ccc(Cl)cc3)CC2)c(N)n1 [Example 16, 5-[4-(4-chloro-phenyl)-3,6-dihydro-2H-pyridin-1-ylmethyl]-2-methyl-pyrimidin-4-ylamine]	4.7

Same assay, conditions: [3H]-spiperone 200 pM; crude membranes of D4-CHO cells; room temperature, 90 minutes, pH 7.4; non-specific binding with 1×10^-5 M (+)-butaclamol; read-out: Affinity to dopamine D4 receptors, Ki

SMILES	Ki [nM]
Cc1ncc(CN2CCN(c3cccc(Cl)c3)CC2)c(N)n1 [Example 7, 5-[4-(3-chloro-phenyl)-piperazin-1-ylmethyl]-2-methyl-pyrimidin-4-ylamine]	28
Cc1ncc(CN2CCN(c3ccc(Cl)cc3)CC2)c(N)n1 [Example 3, 5-[4-(4-Chloro-phenyl)-piperazin-1-ylmethyl]-2-methyl-pyrimidin-4-ylamine]	33
Cc1ncc(CN2CCc3cc(-c4ccccc4)ccc3C2)c(N)n1 [Example 19, 2-Methyl-5-(6-phenyl-3,4-dihydro-1H-isoquinolin-2-ylmethyl)-pyrimidin-4-ylamine]	0.4

The next lines start with the values.

Ki [nM]	SMILES
0.9	Cc1ncc(CN2CC=C(/C=C/c3ccccc3)CC2)c(N)n1 [Example 29, (E)-2-Methyl-5-(4-styryl-3,6-dihydro-2H-pyridin-1-ylmethyl)-pyrimidin-4-ylamine]
6.2	Cc1ncc(CN2CCc3ccc(-c4ccccc4)cc3C2)c(N)n1 [Example 21, 2-Methyl-5-(7-phenyl-3,4-dihydro-1H-isoquinolin-2-ylmethyl)-pyrimidin-4-ylamine]
1.3	Cc1ncc(CN2CC=C(CCc3ccccc3)CC2)c(N)n1 [Example 28, 2-Methyl-5-(4-phenethyl-3,6-dihydro-2H-pyridin-1-ylmethyl)-pyrimidin-4-ylamine]
30	COc1ccccc1N1CCN(Cc2cnc(N)nc2N)CC1 [Example 41, 5-[4-(2-Methoxy-phenyl)-piperazin-1-ylmethyl]-pyrimidine-2,4-diamine]
14	CCCc1ncc(CN2CCN(c3ccccc3OC)CC2)c(N)n1 [Example 33, 5-[4-(2-Methoxy-phenyl)-piperazin-1-ylmethyl]-2-propyl-pyrimidin-4-ylamine]
23	Cc1ncc(CN2CCc3ccc(OCc4ccccc4)cc3C2)c(N)n1 [Example 22, 5-(7-benzyloxy-3,4-dihydro-1H-isoquinolin-2-ylmethyl)-2-methyl-pyrimidin-4-ylamine]
